For data set [1] the following is noted: as stated in U.S. Pat. No. 5,905,082, cited from earlier work.
Data set [2] in a line: Storage of Form I crystals, polymorphic change. The format is physicochemical. Here is the method: (§1) Therefore our endeavour was to prepare Lamivudine polymorph Form I, which is storage stable and remains unchanged during preparation of solid doses form. […] (under reduced pressure). Data has been generated up to 72 h drying at 80° C.
Data set [3] is described as follows: Drying of Form I crystals at 80° C. (under reduced pressure), polymorphic change. The format is physicochemical. Conditions: for conversion of Form I to Form II on drying: drying at 80° C. (under reduced pressure). Here is the method:
as §1
In the present invention, the Lamivudine polymorphic Form I obtained is 100% pure.

Data set [4] can be described thus: Grinding / milling of Form I crystals, polymorphic change. It is filed as physicochemical. As to the method: as §1
The nature of data set [5]: Stability testing at 60° C. The format is physicochemical. Conditions: two months.

The structures appear in SMILES notation. Like-named read-outs stand apart in the source and are kept apart here.

Regarding `Nc1ccn([C@@H]2CS[C@H](CO)O2)c(=O)n1` [Lamivudine polymorphic Form I prepared by crystallisation fr], the “relative stability of polymorphic form” value in data set [1] (listed as Form I crystals) is reported as “less stable”. Further, the “conversion of Form I to Form II in pharmaceutical unit operations” value in data set [1] (milling/grinding) is given as “may cause conversion of Form I to Form II”. Also, the “conversion to Form II on storage” value in data set [2] is “partially converted into Form II”. For the same molecule, the “conversion of Form I to Form II on drying” value (shortened to “conversion … on drying”) in data set [3] was “partially converted into Form II”. In data set [4] (milled/grinded), the “conversion to Form II when milled/grinded” value is “partial conversion to Form II was observed”.

`Nc1ccn([C@@H]2CS[C@H](CO)O2)c(=O)n1` [Form II, Lamivudine]: in data set [1], the “relative stability of polymorphic form” value was “more stable polymorphic form”.

Take `Nc1ccn([C@@H]2CS[C@H](CO)O2)c(=O)n1` [Lamivudine Form I crystals prepared by the process of instan]: in data set [5], the “chemical degradation in stability testing” value is on record as “neither chemical degradation” and the “polymorphic change in stability testing” value is listed as “nor polymorphic change was observed”. Also, in data set [3], the “conversion … on drying” value is “do not convert to Form II”. The “conversion … on drying” value in data set [3] (listed as Lamivudine polymorphic Form I) is recorded as “does not change into other polymorphic form”. Moreover, in data set [3] (up to 72 h drying at 80° C. (under reduced pressure)), the “polymorphic change on drying” value is on record as “no polymorphic change has been observed”. In addition, in data set [4] (grinded neat for 5-15 min at 20-30° C.), the “change in polymorphic form on grinding” value is “no change in polymorphic form has been observed”.

(Values after patent US20100190982A1, “PROCESS FOR THE PREPARATION OF LAMIVUDINE FORM I” (priority 2007, published 2010).)
